We go through seven molecules from patent US6528488B2, “Method for treating cystic fibrosis” (priority 1999, dated 2003).

“And” between values parts separate entries of the source, which are not always exact repeats. Equal entries are not always repeated. Where two headings read alike, the source gives them in different places. Ends that are not written are not given here.

Assay [1] has as its system P. aeruginosa. The format is cell-based. The following applies: for cfu/plate: replicate plates; for efficacy in killing P. aeruginosa: Table 3, summary in words; for activity against P. aeruginosa: Example 5, FIG. 4. Here is the method:
The standard procedure used for testing activity was incubation of the bacterial strain with the peptide for one hour at 37° C., followed by plating at two dilutions. Peptides having the following amino acid sequences (including P-113, as in Example 4) were tested for activity against P. aeruginosa under the conditions described above: P-113 and […] were tested against P. aeruginosa under the conditions described in the preceding examples. The dilution values were as follows: expected-2000 cfu/plate (in broth) from dilution A. A=1/2.5×dilution; plate 50 μl. B=1/2.5×dilution; plate 25 μl.

Assay [2] has as its system P. aeruginosa. It is filed as cell-based. The note with it: ATCC strains and clinical CF isolates of Table 2 (assays D and A). The procedure:
These Pseudomonas clinical isolates, as well as a variety of Pseudomonas ATCC strains, were tested for their susceptibility to the histatin derivative having the sequence Ala-Lys-Arg-His-His-Gly-Tyr-Lys-Arg-Lys-Phe- His-NH2 (SEQ ID NO: 1) (P-113). P-113 was used at a concentration of 100 μg/mL to […]. P. aeruginosa ATCC 27853 was used as a control in each assay. The ATCC strains were tested using Direct Antibacterial Assay SOP 98-020; the clinical isolates were tested using either the Direct Antibacterial Assay (D) or Alamar Blue Antimicrobial/Antifungal Assay SOP 96-018 (A).
The Direct Assay is an MIC test in microtiter plate format in which cells resuspended in LM broth are exposed to two-fold dilutions of P-113, and the cell density is determined directly after an overnight incubation. Cells are inoculated onto a blood agar plate and incubated for 18 hours at 37° C., and then stored at room temperature for use later in the day. Cells are resuspended and diluted based on the optical density to a final concentration of 5×10^5 per ml in LM broth containing two-fold dilutions of antibiotics. After 16-18 hours at 37° C., the optical density is measured with a Molecular Devices Thermonix plate reader. A reading of ˜0.3 over background is observed for cells grown in the absence of drug. Readings<0.01 correlated with no visible growth. […]

As to `C[C@H](NC(=O)[C@H](Cc1c[nH]cn1)NC(=O)[C@H](CO)NC(=O)[C@@H](N)CC(=O)O)C(=O)N[C@@H](CCCCN)C(=O)N[C@@H](CCCNC(=N)N)C(=O)N[C@@H](Cc1c[nH]cn1)C(=O)N[C@@H](Cc1c[nH]cn1)C(=O)NCC(=O)N[C@@H](Cc1ccc(O)cc1)C(=O)N[C@@H](CCCCN)C(=O)N[C@@H](CCCNC(=N)N)C(=O)N[C@@H](CCCCN)C(=O)N[C@@H](Cc1ccccc1)C(=O)N[C@@H](Cc1c[nH]cn1)C(=O)N[C@@H](CCC(=O)O)C(=O)N[C@@H](CCCCN)C(=O)N[C@@H](Cc1c[nH]cn1)C(=O)N[C@@H](Cc1c[nH]cn1)C(=O)N[C@@H](CO)C(=O)N[C@@H](Cc1c[nH]cn1)C(=O)N[C@@H](CCCNC(=N)N)C(=O)NCC(=O)N[C@@H](Cc1ccc(O)cc1)C(=O)O` [His-5, histatin 5, reference compound], the cfu/plate in the assay with P. aeruginosa [1] (0.5 μM, dilution A) is 150 cfu/plate and 164 cfu/plate; in the assay with P. aeruginosa [1] (0.5 μM, dilution B), 90 cfu/plate and 96 cfu/plate; in the assay on P. aeruginosa [1] (5 μM, dilution A), 143 cfu/plate and 159 cfu/plate; in the assay on P. aeruginosa [1] (5 μM, dilution B) it was 73 cfu/plate and 68 cfu/plate; with P. aeruginosa [1] (200 μM, dilution A), 0 cfu/plate; in the assay on P. aeruginosa [1] (200 μM, dilution B), 0 cfu/plate. In addition, the “efficacy in killing P. aeruginosa” value with P. aeruginosa [1] was “effective in killing these bacteria”.

“AKRHHGYKRKFH-NH2 [P-113, Ala-Lys-Arg-His-His-Gly-Tyr-Lys-Arg-Lys-Phe- His-NH2]”: the “effectiveness against the Pseudomonas strains tested” value in the assay with P. aeruginosa [2] is “effective against nearly all of the Pseudomonas strains tested”. The cfu/plate in the assay on P. aeruginosa [1] (5 μM as printed, second P-113 5 μM line (after His-5 0.5 μM), dilution A) is 133 cfu/plate and 170 cfu/plate; with P. aeruginosa [1] (5 μM as printed, second P-113 5 μM line (after His-5 0.5 μM), dilution B), 88 cfu/plate and 85 cfu/plate; in the assay on P. aeruginosa [1] (50 μM, dilution A), 0 cfu/plate; in the assay on P. aeruginosa [1] (200 μM, dilution A), 0 cfu/plate; in the assay on P. aeruginosa [1] (200 μM, dilution B), 0 cfu/plate. The “activity against P. aeruginosa” value in the assay with P. aeruginosa [1] is reported as “very active”. For the same molecule, the “efficacy in killing P. aeruginosa” value with P. aeruginosa [1] is reported as “greater efficacy than His-5”.

In the case of “Ala-Gln-Arg-His-His- Gly-Tyr-Lys-Arg-Gln-Phe-His-NH2 (AQRHHGYKRQFH-NH2) [P-113 Q2.10]”, the “activity against P. aeruginosa” value in the assay with P. aeruginosa [1] is “very active”.

Regarding “Ala-Gln-Gln-His-His-Gly-Tyr- Lys-Gln-Gln-Phe-His-NH2 (AQQHHGYKQQFH-NH2) [P-113 Q2.3.9.10]”, the “activity against P. aeruginosa” value with P. aeruginosa [1] is “inactive”.

For the molecule “Ala-Lys-Arg- Tyr-Tyr-Gly-Tyr-Lys-Arg-Lys-Phe-Tyr-NH2 (AKRYYGYKRKFY-NH2) [P-113 Y4.5.12]”, the “activity against P. aeruginosa” value in the assay on P. aeruginosa [1] is “very active”.

For “Ala-Lys-Arg-Leu- Leu-Gly-Tyr-Lys-Arg-Lys-Phe-Leu-NH2 (AKRLLGYKRKFL-NH2) [P-113 L4.5.12]”, the “activity against P. aeruginosa” value with P. aeruginosa [1] was “also active”.

On to “Ala-Lys-Gln-His-His-Gly- Tyr-Lys-Gln-Lys-Phe-His-NH2 (AKQHHGYKQKFH-NH2) [P-113 Q3.9]”, for which the “activity against P. aeruginosa” value in the assay on P. aeruginosa [1] is given as “also active”.
